Values quoted from earlier work, collected in patent US7393522B2, “Physiologically balanced, ionized, acidic solution and methodology for use in wound healing” (NovaBay Pharmaceuticals, Inc., priority 2000, dated 2008).

Settings: pH 5.0 to pH 8.0

In the case of OCl [HOCl, hypochlorous acid], the “pH of maximum decomposition rate” value is given as 6.89.
